Experimental data from ChEMBL document CHEMBL1201862, “PubChem BioAssay data set” (2004).
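Grown in 96-well plates, cells were treated for 48 hours with each compound at five concentrations. Insufficient inhibition: endpoint recorded as highest concentration tested. GI50: concentration for 50% inhibition of growth.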 The source made the active and inactive calls. Cut-off read from the data, not from the text of the source: active = GI50 up to about 1.1 µM and inactive = higher.

Key:
Experiment in all cases: inhibition of tumour cell growth, NCI panel, 48 h
HOP-62 = tested on: HOP-62
DMS-273 = tested on: DMS-273
SF-539 = tested on: SF-539
HCT-15 = tested on: HCT-15
CAKI-1 = tested on: CAKI-1
K562 = tested on: K562
SNB-75 = tested on: SNB-75
A549 = tested on: A549
OVCAR-3 = tested on: OVCAR-3
M19-MEL = tested on: M19-MEL
OVCAR-5 = tested on: OVCAR-5
U-251 = tested on: U-251
OVCAR-4 = tested on: OVCAR-4
NCI-H23 = tested on: NCI-H23
SR = tested on: SR
HOP-18 = tested on: HOP-18
SK-MEL-5 = tested on: SK-MEL-5
TK-10 = tested on: TK-10
CCRF-CEM = tested on: CCRF-CEM
UO-31 = tested on: UO-31
MOLT-4 = tested on: MOLT-4
LXFL 529 = tested on: LXFL 529
SW-620 = tested on: SW-620
NCI-H460 = tested on: NCI-H460
786-0 = tested on: 786-0
HL-60 = tested on: HL-60
HOP-92 = tested on: HOP-92
SF-268 = tested on: SF-268
SK-MEL-28 = tested on: SK-MEL-28
NCI-H522 = tested on: NCI-H522
KM12 = tested on: KM12
SK-MEL-2 = tested on: SK-MEL-2
SN12C = tested on: SN12C
HCT-116 = tested on: HCT-116
HT-29 = tested on: HT-29
LOX IMVI = tested on: LOX IMVI
IGROV-1 = tested on: IGROV-1
UACC-62 = tested on: UACC-62
DMS-114 = tested on: DMS-114
DLD-1 = tested on: DLD-1
SNB-19 = tested on: SNB-19
M14 = tested on: M14
SK-OV-3 = tested on: SK-OV-3
RXF 393 = tested on: RXF 393
OVCAR-8 = tested on: OVCAR-8
COLO 205 = tested on: COLO 205
Malme-3M = tested on: Malme-3M
RPMI-8226 = tested on: RPMI-8226
HCC 2998 = tested on: HCC 2998
SF-295 = tested on: SF-295
ACHN = tested on: ACHN
EKVX = tested on: EKVX
A498 = tested on: A498
XF498 = tested on: XF498
UACC-257 = tested on: UACC-257
KM-20L2 = tested on: KM-20L2
SNB-78 = tested on: SNB-78

NC1=NS(=O)(=O)Nc2nc(-c3ccc([N+](=O)[O-])cc3)[nH]c21
GI50 (HOP-62): > 100 µM (inactive) | GI50 (DMS-273): > 100 µM (inactive) | GI50 (SF-539): > 100 µM (inactive) | GI50 (HCT-15): > 100 µM | GI50 (CAKI-1): > 100 µM (inactive) | GI50 (K562): > 100 µM (inactive) | GI50 (SNB-75): > 100 µM (inactive) | GI50 (A549): > 100 µM (inactive) | GI50 (OVCAR-3): > 100 µM (inactive) | GI50 (M19-MEL): > 100 µM (inactive) | GI50 (OVCAR-5): > 100 µM (inactive) | GI50 (U-251): > 100 µM (inactive) | GI50 (OVCAR-4): > 100 µM (inactive) | GI50 (NCI-H23): > 100 µM (inactive) | GI50 (SR): > 100 µM (inactive) | GI50 (HOP-18): > 100 µM (inactive) | GI50 (SK-MEL-5): > 100 µM (inactive) | GI50 (TK-10): > 100 µM (inactive) | GI50 (CCRF-CEM): > 100 µM (inactive) | GI50 (UO-31): > 100 µM (inactive) | GI50 (MOLT-4): > 100 µM (inactive) | GI50 (LXFL 529): > 100 µM (inactive) | GI50 (SW-620): > 100 µM (inactive) | GI50 (NCI-H460): > 100 µM (inactive) | GI50 (786-0): > 100 µM (inactive) | GI50 (HL-60): > 100 µM (inactive) | GI50 (HOP-92): > 100 µM (inactive) | GI50 (SF-268): > 100 µM (inactive) | GI50 (SK-MEL-28): > 100 µM (inactive) | GI50 (NCI-H522): > 100 µM (inactive) | GI50 (KM12): > 100 µM (inactive) | GI50 (SK-MEL-2): > 100 µM (inactive) | GI50 (SN12C): > 100 µM (inactive) | GI50 (HCT-116): > 100 µM (inactive) | GI50 (HT-29): > 100 µM (inactive) | GI50 (LOX IMVI): > 100 µM (inactive) | GI50 (IGROV-1): > 100 µM (inactive) | GI50 (UACC-62): > 100 µM (inactive) | GI50 (DMS-114): > 100 µM (inactive) | GI50 (DLD-1): > 100 µM (inactive) | GI50 (SNB-19): > 100 µM (inactive) | GI50 (M14): > 100 µM (inactive) | GI50 (SK-OV-3): > 100 µM (inactive) | GI50 (RXF 393): > 100 µM (inactive) | GI50 (OVCAR-8): > 100 µM (inactive) | GI50 (COLO 205): > 100 µM (inactive) | GI50 (Malme-3M): > 100 µM (inactive) | GI50 (RPMI-8226): > 100 µM (inactive) | GI50 (HCC 2998): > 100 µM (inactive) | GI50 (SF-295): > 100 µM (inactive) | GI50 (ACHN): > 100 µM (inactive)

NC(CSSCC(N)Cc1ccccc1)Cc1ccccc1 (stereo not drawn)
GI50 (HOP-62): > 100 µM (inactive) | GI50 (EKVX): 47.5 µM (inactive) | GI50 (DMS-273): > 10 µM (inactive) | GI50 (HCT-15): 66.7 µM | GI50 (A498): > 100 µM (inactive) | GI50 (K562): 33.4 µM (inactive) | GI50 (XF498): 27.1 µM (inactive) | GI50 (SNB-75): > 10 µM (inactive) | GI50 (A549): 65.8 µM (inactive) | GI50 (OVCAR-3): 33 µM (inactive) | GI50 (M19-MEL): 49 µM (inactive) | GI50 (OVCAR-5): 44.3 µM (inactive) | GI50 (U-251): 84.1 µM (inactive) | GI50 (OVCAR-4): 70.8 µM (inactive) | GI50 (NCI-H23): 44.4 µM (inactive) | GI50 (SR): 31 µM (inactive) | GI50 (UACC-257): 47.8 µM (inactive) | GI50 (SK-MEL-5): 24 µM (inactive) | GI50 (TK-10): > 100 µM (inactive) | GI50 (CCRF-CEM): 32.9 µM (inactive) | GI50 (UO-31): > 100 µM (inactive) | GI50 (MOLT-4): 30.1 µM (inactive) | GI50 (LXFL 529): 36.1 µM (inactive) | GI50 (SW-620): 31.6 µM (inactive) | GI50 (NCI-H460): 40.8 µM (inactive) | GI50 (786-0): 32.9 µM (inactive) | GI50 (HL-60): 32.7 µM (inactive) | GI50 (SF-268): 49.4 µM (inactive) | GI50 (SK-MEL-28): 43.4 µM (inactive) | GI50 (NCI-H522): 15.7 µM (inactive) | GI50 (KM12): 30.2 µM (inactive) | GI50 (SK-MEL-2): 36.8 µM (inactive) | GI50 (SN12C): 37.9 µM (inactive) | GI50 (HCT-116): 35.2 µM (inactive) | GI50 (HT-29): 44 µM (inactive) | GI50 (LOX IMVI): 29.7 µM (inactive) | GI50 (IGROV-1): > 100 µM (inactive) | GI50 (UACC-62): 23.1 µM (inactive) | GI50 (DMS-114): 39.2 µM (inactive) | GI50 (DLD-1): 49.5 µM (inactive) | GI50 (SNB-19): > 100 µM (inactive) | GI50 (KM-20L2): 71.1 µM (inactive) | GI50 (M14): 26.4 µM (inactive) | GI50 (SK-OV-3): 85.7 µM (inactive) | GI50 (OVCAR-8): 51.3 µM (inactive) | GI50 (COLO 205): 32.7 µM (inactive) | GI50 (Malme-3M): 57.3 µM (inactive) | GI50 (RPMI-8226): 35.3 µM (inactive) | GI50 (HCC 2998): > 100 µM (inactive) | GI50 (SF-295): 41.5 µM (inactive) | GI50 (ACHN): 76.4 µM (inactive) | GI50 (SNB-78): > 100 µM (inactive)
